{"source": "patent US20230337719A1", "about": "“ORAL PRODUCT” (Nicoventures Trading Limited, priority 2020, published 2023)", "molecules": {"B1": {"name": "WGT14: terpene glycosyl transferase VvGT14 from Vitis vinifera (SEQ ID NO: 1) (protein, listed as Vitis vinifera)", "chain": "MGSMEKPHAVCIPYPAQGHINPMLKVAKLLHFRGFRITFVNTEFNHTRLLKAQGPNSLNGLPTFQFETIPDGLPPSNVDATQDIPSLCASTKKNCLAPFRRLLAKLNDRGPPVTCIFSDAVMSFTLDAAQELGIPDLLLWTASACGFMAYVQYRSLIDKGFTPLKDESYLTNGYLDTVVDWIPGMKGIRLKDLPSFIRTTDPDDIMLDFAMGELERARKASAIIFNTFDALEQEVLDAIAPMYPPIYTIGPLQLLPDQIHDSELKLIGSNLWKEEPECLKWLDSKEPNSVVYVNYGSITVMTPQQLIEFAWGLANSNQSFLWILRPDLVSGESAILPPEFVAETEDRGLLAGWCPQEQVLTHQAIGGFLTHNGWNSTIEGLCAGVPMICWPFFAEQQTNCRYCCTEWGVGMEIDSDVKRDEVAKLVRELMVGEKGKVMKKKTMEWKHRAEVATTGPDGSSYLNLEKIFEQVLL"}}, "key": {"[1]": {"experiment": "Modern Oral Intervention Trial: in-mouth glycoside degradation of spiked oral product, HPLC quantitation", "format": "in vivo, human", "description": "Test Product - An oral product was prepared based on the commercial product sold by British American Tobacco as LYFT. The product included microcrystalline cellulose as a filler. […] The samples were then left at room temperature for one day to evaporate the ethanol.\nModern Oral Intervention Trial - Three healthy volunteers (female, 30-35 years of age) were asked to place the raspberry ketone spiked oral product under their upper lip, slightly to the side of the front teeth. After 30 sec, the product was moisturised by using the tip of the tongue. After 5 min, the product was disgorged into a centrifuge tube and any salivary enzymatic processes stopped by adding methanol (5 mL, p.A.) into the centrifuge tube. The procedure was repeated with intervention times of 0 (control sample), 10 and 20 min.\nSample Preparation - The centrifuge tubes containing the oral product and methanol (5 mL, p.A.) were vortexed for 10 sec and then placed on a plate shaker for 10 min to extract the remaining raspberry ketone glycoside. Afterwards, the tubes were centrifuged (13,200 rpm, 10 min) and the supernatant decanted into a safe lock tube (2 mL). The safe lock tube was centrifuged (13,200 rpm, 10 min) and an aliquot taken for analysis.\nQuantitation of in-mouth glycoside degradation - Analysis was performed on a HPLC system (Knauer, Germany) equipped with a pump (AZURA P2.1S), auto-sampler (AZURA AS 6.1L) and diode-array UV/VIS detector (AZURA DAD 6.1L). Samples were loaded onto a reversed phase C18 column (Knauer, Eurospher II 100 C18, 3 mm × 100 mm) and separated with a 10 min gradient starting at 90% solvent mixture A (0.1% formic acid in water) in solvent mixture B (0.1% formic acid in methanol) at a flow rate of 0.5 mL/min changing to 30% A in 5 min and back to 90% A in 0.05 min holding for 4.5 min. The detection UV wavelength was set at 280 nm. Quantitation was performed by using an external calibration curve.\n3 healthy volunteers were asked to place raspberry ketone spiked oral products under their upper lip according to a defined procedure and leave the pouch in their mouth for 5, 10 and 20 min. The remaining glycoside of the incubated samples as well as a control sample which was not incubated was extracted as described above and quantified by means of high pressure liquid chromatography and an external calibration curve."}, "[2]": {"experiment": "glucosylation of furaneol by glycosyl transferase", "format": "biochemical, Vitis vinifera", "description": "At some instances, the present application refers to a glycosyl transferase being “capable of catalyzing” a certain reaction. For example, the present application may state that a glycosyl transferase is capable of catalyzing transfer of a sugar group from a sugar donor to a certain acceptor. This is meant to designate that under appropriate reaction conditions the rate at which the reaction product (in the example the adduct of the sugar group and the acceptor) is formed is at least 10-fold higher in the presence of said glycosyl transferase than the rate at which the reaction product is formed in a control experiment in the absence of said glycosyl transferase."}}, "data": [{"molecule": "4-[4′-Hydroxy phenyl]-butan-2-one-4′-O-β-D-glucopyranoside [raspberry ketone glycoside]", "values": [{"measurement": "amount of raspberry ketone remaining in product", "setting": "[1]; 0 min (control sample, not incubated), tester P-01, product spiked with 1200 ppm raspberry ketone glycoside", "result": 0.2, "unit": "mg/mL"}, {"measurement": "amount of raspberry ketone remaining in product", "setting": "[1]; 0 min (control sample, not incubated), tester P-02, product spiked with 1200 ppm raspberry ketone glycoside", "result": 0.2, "unit": "mg/mL"}, {"measurement": "amount of raspberry ketone remaining in product", "setting": "[1]; 0 min (control sample, not incubated), tester P-03, product spiked with 1200 ppm raspberry ketone glycoside", "result": 0.2, "unit": "mg/mL"}, {"measurement": "percentage release of raspberry ketone from glycoside", "setting": "[1]; 0 min, tester P-01", "result": 0, "unit": "%"}, {"measurement": "percentage release of raspberry ketone from glycoside", "setting": "[1]; 0 min, tester P-02", "result": 0, "unit": "%"}, {"measurement": "percentage release of raspberry ketone from glycoside", "setting": "[1]; 0 min, tester P-03", "result": 0, "unit": "%"}, {"measurement": "amount of raspberry ketone remaining in product", "setting": "[1]; 5 min in mouth, tester P-01", "result": 0.15, "unit": "mg/mL"}, {"measurement": "percentage release of raspberry ketone from glycoside", "setting": "[1]; 5 min in mouth, tester P-01", "result": 25, "unit": "%"}, {"measurement": "amount of raspberry ketone remaining in product", "setting": "[1]; 5 min in mouth, tester P-02", "result": 0.13, "unit": "mg/mL"}, {"measurement": "percentage release of raspberry ketone from glycoside", "setting": "[1]; 5 min in mouth, tester P-02", "result": 35, "unit": "%"}, {"measurement": "amount of raspberry ketone remaining in product", "setting": "[1]; 5 min in mouth, tester P-03", "result": 0.16, "unit": "mg/mL"}, {"measurement": "percentage release of raspberry ketone from glycoside", "setting": "[1]; 5 min in mouth, tester P-03", "result": 20, "unit": "%"}, {"measurement": "amount of raspberry ketone remaining in product", "setting": "[1]; 10 min in mouth, tester P-01", "result": 0.12, "unit": "mg/mL"}, {"measurement": "percentage release of raspberry ketone from glycoside", "setting": "[1]; 10 min in mouth, tester P-01", "result": 40, "unit": "%"}, {"measurement": "amount of raspberry ketone remaining in product", "setting": "[1]; 10 min in mouth, tester P-02", "result": 0.10, "unit": "mg/mL"}, {"measurement": "percentage release of raspberry ketone from glycoside", "setting": "[1]; 10 min in mouth, tester P-02", "result": 50, "unit": "%"}, {"measurement": "amount of raspberry ketone remaining in product", "setting": "[1]; 10 min in mouth, tester P-03", "result": 0.16, "unit": "mg/mL"}, {"measurement": "percentage release of raspberry ketone from glycoside", "setting": "[1]; 10 min in mouth, tester P-03", "result": 20, "unit": "%"}, {"measurement": "amount of raspberry ketone remaining in product", "setting": "[1]; 20 min in mouth, tester P-01", "result": 0.06, "unit": "mg/mL"}, {"measurement": "percentage release of raspberry ketone from glycoside", "setting": "[1]; 20 min in mouth, tester P-01", "result": 70, "unit": "%"}, {"measurement": "amount of raspberry ketone remaining in product", "setting": "[1]; 20 min in mouth, tester P-02", "result": 0.06, "unit": "mg/mL"}, {"measurement": "percentage release of raspberry ketone from glycoside", "setting": "[1]; 20 min in mouth, tester P-02", "result": 70, "unit": "%"}, {"measurement": "amount of raspberry ketone remaining in product", "setting": "[1]; 20 min in mouth, tester P-03", "result": 0.13, "unit": "mg/mL"}, {"measurement": "percentage release of raspberry ketone from glycoside", "setting": "[1]; 20 min in mouth, tester P-03", "result": 35, "unit": "%"}, {"measurement": "glycoside enzymatically cleaved", "setting": "[1]; after 20 min in mouth incubation, across all panellists", "result": "35 - 70%"}]}, {"molecule": "B1", "values": [{"measurement": "capability of catalyzing glucosylation of furaneol", "setting": "[2]", "result": "capable of catalyzing glucosylation of furaneol"}]}]}
